Source: US6982348B2, “Aminoethanol derivatives” (Takeda Pharmaceutical Company Limited, priority 2001, dated 2006)

| SMILES | melting point |
| --- | --- |
| O=C(N[C@H](Cc1ccc(C(F)(F)F)cc1)[C@@H](O)c1ccc(Cl)s1)c1ccc(F)c2ccccc12 (racemic) [Example 197, N-[(1RS,2RS)-2-(5-chloro-2-thienyl)-2-hydroxy-1-[4-(trifluoromethyl)benzyl]ethyl]-4-fluoronaphthalene-1-carboxamide] | 201 to 203 °C |
| O=C(N[C@H](Cc1ccc(C(F)(F)F)cc1)[C@@H](O)c1ccc(Cl)s1)c1cccc2c1C=CCCC2 (racemic) [Example 198, N-[(1RS,2RS)-2-(5-chloro-2-thienyl)-2-hydroxy-1-[4-(trifluoromethyl)benzyl]ethyl]-6,7-dihydro-5H-benzo[a]cycloheptene-1-carboxamide] | 184 to 185 °C |
| O=C(N[C@H](Cc1ccc(C(F)(F)F)cc1)[C@@H](O)c1ccc(Cl)nc1)c1ccc(F)c2ccccc12 (racemic) [Example 202, N-((1RS,2SR)-2-(6-chloro-3-pyridyl)-2-hydroxy-1-((4-(trifluoromethyl)phenyl)methyl)ethyl)-4-fluoro-1-naphthalenecarboxamide] | 188 to 189 °C |
| O=C(CCc1ccccc1)N[C@H](Cc1ccc(C(F)(F)F)cc1)[C@@H](O)c1ccc(Cl)nc1 (racemic) [Example 203, N-((1RS,2SR)-2-(6-chloro-3-pyridyl)-2-hydroxy-1-((4-(trifluoromethyl)phenyl)methyl)ethyl)-3-phenylpropanamide] | 149 to 150 °C |
| O=C(N[C@H](Cc1ccc(C(F)(F)F)cc1)[C@@H](O)c1cccc(Oc2ccccc2)c1)c1ccc(F)c2ccccc12 (racemic) [Example 207, N-((1RS,2SR)-2-hydroxy-2-(3-phenoxyphenyl)-1-((4-(trifluoromethyl)phenyl)methyl)ethyl)-4-fluoro-1-naphthalenecarboxamide] | 184 to 185 °C |
| O=C(CCc1ccccc1)N[C@H](Cc1ccc(C(F)(F)F)cc1)[C@@H](O)c1cccc(Oc2ccccc2)c1 (racemic) [Example 208, N-((1RS,2SR)-2-hydroxy-2-(3-phenoxyphenyl)-1-((4-(trifluoromethyl)phenyl)methyl)ethyl)-3-phenylpropanamide] | 134 to 135 °C |
| O=C(N[C@H](Cc1ccc(C(F)(F)F)cc1)[C@@H](O)c1ccc(Oc2ccccc2)cc1)c1ccc(F)c2ccccc12 (racemic) [Example 209, N-((1RS,2SR)-2-hydroxy-2-(4-phenoxyphenyl)-1-((4-(trifluoromethyl)phenyl)methyl)ethyl)-4-fluoro-1-naphthalenecarboxamide] | 205 to 210 °C |
| O=C(CCc1ccccc1)N[C@H](Cc1ccc(C(F)(F)F)cc1)[C@@H](O)c1ccc(Oc2ccccc2)cc1 (racemic) [Example 211, N-((1RS,2SR)-2-hydroxy-2-(4-phenoxyphenyl)-1-((4-(trifluoromethyl)phenyl)methyl)ethyl)-3-phenylpropanamide] | 133 to 134 °C |
| O=C(N[C@H](Cc1ccc(F)cc1)[C@@H](O)c1ccc(C(F)(F)F)cc1)c1cccc2ccccc12 (racemic) [Example 212, N-((1RS,2SR)-1-((4-fluorophenyl)methyl)-2-hydroxy-2-(4-(trifluoromethyl)phenyl)ethyl)-1-naphthalenecarboxamide] | 207 to 208 °C |
| O=C(N[C@H](Cc1ccc(F)cc1)[C@@H](O)c1ccc(C(F)(F)F)cc1)c1ccc(F)c2ccccc12 (racemic) [Example 213, 4-fluoro-N-((1RS,2SR)-1-((4-fluorophenyl)methyl)-2-hydroxy-2-(4-(trifluoromethyl)phenyl)ethyl)-1-naphthalenecarboxamide] | 235 to 236 °C |
| O=C(N[C@H](Cc1ccc(F)cc1)[C@@H](O)c1ccc(C(F)(F)F)cc1)C1CCCCC1 (racemic) [Example 214, N-((1RS,2SR)-1-((4-fluorophenyl)methyl)-2-hydroxy-2-(4-(trifluoromethyl)phenyl)ethyl)cyclohexanecarboxamide] | 220 to 221 °C |
| O=C(CCCc1ccccc1)N[C@H](Cc1ccc(F)cc1)[C@@H](O)c1ccc(C(F)(F)F)cc1 (racemic) [Example 215, N-((1RS,2SR)-1-((4-fluorophenyl)methyl)-2-hydroxy-2-(4-(trifluoromethyl)phenyl)ethyl)-4-phenylbutyramide] | 155 to 156 °C |
| CC(C)(C)OC(=O)N[C@H](Cc1cccc(OC(F)(F)C(F)F)c1)[C@@H](O)c1ccnc(F)c1 (racemic) [Example 219, 1,1-dimethylethyl(1RS,2SR)-2-(2-fluoropyridin-4-yl)-2-hydroxy-1-((3-(1,1,2,2-tetrafluoroethoxy)phenyl)methyl)ethylcarbamate] | 143 to 144 °C |

Second part, the compound after the results:

| melting point | SMILES |
| --- | --- |
| 140 to 141 °C | CC(C)(C)OC(=O)N[C@H](Cc1cccc(OC(F)(F)C(F)F)c1)[C@@H](O)c1cccc(F)n1 (racemic) [Example 221, 1,1-dimethylethyl(1RS,2RS)-2-(6-fluoropyridin-2-yl)-2-hydroxy-1-((3-(1,1,2,2-tetrafluoroethoxy)phenyl)methyl)ethylcarbamate] |
| 128 to 129 °C | CC(C)(C)OC(=O)N[C@H](Cc1cccc(OC(F)(F)C(F)F)c1)[C@@H](O)c1ccc(F)nc1 (racemic) [Example 223, 1,1-dimethylethyl(1RS,2SR)-2-(6-fluoropyridin-3-yl)-2-hydroxy-1-((3-(1,1,2,2-tetrafluoroethoxy)phenyl)methyl)ethylcarbamate] |
| 148 to 149 °C | O=C(N[C@H](Cc1cccc(OC(F)(F)C(F)F)c1)[C@@H](O)c1ccc(F)nc1)c1ccc(F)c2ccccc12 (racemic) [Example 224, N-((1RS,2SR)-2-(6-fluoropyridin-3-yl)-2-hydroxy-1-((3-(1,1,2,2-tetrafluoroethoxy)phenyl)methyl)ethyl)-4-fluoro-1-naphthalenecarboxamide] |
| 189 to 190 °C | Cc1cc(C[C@@H](NC(=O)c2ccc(F)c3ccccc23)[C@@H](O)c2ccc(F)cc2)cc(OC(F)(F)C(F)F)c1 (racemic) [Example 230, N-((1RS,2SR)-2-(4-fluorophenyl)-2-hydroxy-1-((5-methyl-3-(1,1,2,2-tetrafluoroethoxy)phenyl)methyl)ethyl)-4-fluoro-1-naphthalenecarboxamide] |
| 168 to 169 °C | Cc1ccc(C[C@@H](NC(=O)c2cccc3c2C=CCCC3)[C@@H](O)c2ccc(F)cc2)cc1OC(F)(F)C(F)F (racemic) [Example 234, N-((1RS,2SR)-2-(4-fluorophenyl)-2-hydroxy-1-((4-methyl-3-((1,1,2,2-tetrafluoroethyl)oxy)phenyl)methyl)ethyl)-6,7-dihydro-5H-benzo[a]cycloheptene-1-carboxamide] |
| 150 to 155 °C | O=C(N[C@H](Cc1cccc(OC(F)(F)C(F)F)c1)[C@@H](O)c1cccc(F)c1)c1cccc2c1C=CCCC2 (racemic) [Example 235, N-((1RS,2SR)-2-(3-fluorophenyl)-2-hydroxy-1-[3-(1,1,2,2-tetrafluoroethoxy)benzyl]ethyl)-6,7-dihydro-5H-benzo[a][7]annulene-1-carboxamide] |
| 115 to 116 °C | O=C(N[C@H](Cc1cccc(OC(F)(F)C(F)F)c1)[C@@H](O)c1ccc(OCc2ccccc2)cc1)c1cccc2c1C=CCCC2 (racemic) [Example 236, N-{(1RS,2SR)-2-[4-(benzyloxy)phenyl]-2-hydroxy-1-[3-(1,1,2,2-tetrafluoroethoxy)benzyl]ethyl}-6,7-dihydro-5H-benzo[a][7]annulene-1-carboxamide] |
| 160 to 161 °C | O=C(N[C@H](Cc1cccc(OC(F)(F)C(F)F)c1)[C@@H](O)c1cccc(Cl)c1)c1cccc2c1C=CCCC2 (racemic) [Example 237, N-{(1RS,2SR)-2-(3-chlorophenyl)-2-hydroxy-1-[3-(1,1,2,2-tetrafluoroethoxy)benzyl]ethyl}-6,7-dihydro-5H-benzo[a][7]annulene-1-carboxamide] |
| 109 to 110 °C | CC(C)(C)OC(=O)N[C@H](Cc1cccc(OC(F)(F)C(F)F)n1)[C@@H](O)c1ccc(F)cc1 (racemic) [Example 238, tert-butyl (1RS,2SR)-2-(4-fluorophenyl)-2-hydroxy-1-{[6-(1,1,2,2-tetrafluoroethoxy)pyridin-2-yl]methyl}ethylcarbamate] |
| 134 to 135 °C | O=C(N[C@H](Cc1cccc(OC(F)(F)C(F)F)n1)[C@@H](O)c1ccc(F)cc1)c1cccc2c1C=CCCC2 (racemic) [Example 239, N-((1RS,2SR)-2-(4-fluorophenyl)-2-hydroxy-1-{[6-(1,1,2,2-tetrafluoroethoxy)pyridin-2-yl]methyl}ethyl)-6,7-dihydro-5H-benzo[a][7]annulene-1-carboxamide] |
| 128 to 129 °C | O=C(N[C@H](Cc1cccc(OC(F)(F)C(F)F)c1)[C@@H](O)c1cccc(OCc2ccccc2)c1)c1cccc2c1C=CCCC2 (racemic) [Example 240, N-{(1RS,2SR)-2-[3-(benzyloxy)phenyl]-2-hydroxy-1-[3-(1,1,2,2-tetrafluoroethoxy)benzyl]ethyl}-6,7-dihydro-5H-benzo[a][7]annulene-1-carboxamide] |
| 167 to 168 °C | O=C(N[C@H](Cc1cccc(OC(F)(F)C(F)F)c1)[C@@H](O)c1ccc(O)cc1)c1cccc2c1C=CCCC2 (racemic) [Example 241, N-{(1RS,2SR)-2-hydroxy-2-(4-hydroxyphenyl)-1-[3-(1,1,2,2-tetrafluoroethoxy)benzyl]ethyl}-6,7-dihydro-5H-benzo[a][7]annulene-1-carboxamide] |
| 151 to 152 °C | COc1ccc([C@H](O)[C@@H](Cc2cccc(OC(F)(F)C(F)F)c2)NC(=O)c2cccc3c2C=CCCC3)cc1 (racemic) [Example 242, N-{(1RS,2SR)-2-hydroxy-2-(4-methoxyphenyl)-1-[3-(1,1,2,2-tetrafluoroethoxy)benzyl]ethyl}-6,7-dihydro-5H-benzo[a][7]annulene-1-carboxamide] |
| 134 to 135 °C | CC(C)Oc1ccc([C@H](O)[C@@H](Cc2cccc(OC(F)(F)C(F)F)c2)NC(=O)c2cccc3c2C=CCCC3)cc1 (racemic) [Example 243, N-{(1RS,2SR)-2-hydroxy-2-(4-isopropoxyphenyl)-1-[3-(1,1,2,2-tetrafluoroethoxy)benzyl]ethyl}-6,7-dihydro-5H-benzo[a][7]annulene-1-carboxamide] |
